Results on 51 compounds are retold here after patent US9206164B2, “Pyrazole compounds as CRTH2 antagonists” (Boehringer Ingelheim International GmbH, priority 2011, dated 2015).

As usually defined, the Ki is a dissociation constant, usually derived from enzyme kinetics or from competition with a known ligand. A high value points to weaker binding.

The target in the assay is human CRTH2 receptor (Homo sapiens (Human), UniProt Q9Y5Y4). Briefly: CRTH2 receptor radioligand binding assay (SPA, [3H]-PGD2 displacement). The note with it: antagonistic activities of selected compounds. As to the method: The binding of CRTH2 antagonists is determined using membranes prepared from Chinese hamster ovary cells (CHO-K1 cells) transfected with the human CRTH2 receptor (CHO-K1-hCRTH2 cells, Perkin Elmer, Cat No ES-561-C). To produce cell membranes the CHO-K1-hCRTH2 cells are cultured in suspension in CHO SFMII medium supplemented with 400 μg/ml G418. The cells are harvested by centrifugation at 300 g for 10 min at room temperature. The cell pellet is resuspended in Phosphate Buffer Saline (PBS) including a protease inhibitor mix (Complete, Roche) and adjusted to a concentration of 10E7 cells/ml. The CHO-K1-hCRTH2 cells are disrupted by nitrogen […] to obtain the membrane preparation. Cell debris is removed by centrifugation (500 g at 4° C., 30 min) and the supernatant is transferred into fresh tubes followed by a second centrifugation at 40000 g for 1 h at 4° C. to sediment the membranes. The membranes are suspended in SPA incubation buffer (50 mM Tris HCl, 10 mM MgCl2, 150 mM NaCl, 1 mM EDTA, pH 7.4) without bovine serum albumin, homogenized by passing through a single use needle (Terumo, 23G×1″), and stored in aliquots at −80° C.
human CRTH2 receptor, sequence (Q9Y5Y4 whole entry): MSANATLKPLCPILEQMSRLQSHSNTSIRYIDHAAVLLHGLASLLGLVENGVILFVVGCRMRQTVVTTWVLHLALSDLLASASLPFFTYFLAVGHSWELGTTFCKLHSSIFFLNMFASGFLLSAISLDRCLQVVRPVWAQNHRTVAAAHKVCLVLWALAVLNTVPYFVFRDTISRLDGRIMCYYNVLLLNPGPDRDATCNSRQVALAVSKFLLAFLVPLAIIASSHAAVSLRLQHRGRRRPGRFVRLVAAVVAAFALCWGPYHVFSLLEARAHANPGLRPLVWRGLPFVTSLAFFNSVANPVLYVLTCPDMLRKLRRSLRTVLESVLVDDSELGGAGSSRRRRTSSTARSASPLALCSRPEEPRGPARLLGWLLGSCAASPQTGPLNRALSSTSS
The CRTH2 receptor binding assay is performed in a scintillation proximity assay (SPA) format with the radioligand [^3H]-PGD2 (Perkin Elmer, NET616000MC). CHO-K1-hCRTH2 cell membranes are again homogenized by passing through a single use needle (Terumo, 23G×1″) and diluted in SPA incubation buffer in suitable concentrations (0.5-10 μg protein/well). The SPA assay is set up in 96 well microtiter plates (Perkin Elmer, CatNo. 6005040) in SPA incubation buffer with a final volume of 200 μl per well and final concentration of 50 mM Tris-HCl, 10 mM MgCl2, 150 mM NaCl, 1 mM EDTA pH 7.4, 0.1% bovine serum albumin). The SPA assay mixture contains 60 μl of the membrane suspension, 80 μl of Wheat Germ Agglutinin coated PVT beads (GE Healthcare, RPNQ-0001, 0.3 mg/well), 40 μl of [^3H]-PGD2 diluted in SPA buffer to a final concentration of 1 nM (50 000 dpm) and 20 μl of the test compound (dissolved in dimethylsulfoxid). The SPA assay mixture is incubated for 3 h at room temperature. Bound radioactivity is determined with a scintillation counter (Micro Beta Trilux, Wallac).
The binding of [^3H]-PGD2 to CHO-K1-hCRTH2 cell membranes is determined in the absence (total binding, Bo) and presence (non-specific binding, NSB) of unlabelled PGD2 (1 μM, Cayman Chemical, Cat No 12010) or a reference CRTH2 antagonist (10 μM CAY10471, Cayman Chemical, Cat No 10006735).
Determination of the affinity of a test compound is calculated by subtraction of the non-specific binding (NSB) from the total binding (Bo) or the binding in the presence of the test compound (B) at a given compound concentration. The NSB value is set to 100% inhibition. The Bo−NSB value is set to 0% inhibition.
% inhibition values were obtained at a defined compound concentration, e.g. at 1 μM, % inhibition of the test compound was calculated by the formula 100−((B−NSB)*100/(Bo−NSB)). % inhibition values above 100% are founded by assay variance.
`Cc1nn(Cc2ccc(-c3cc4ccc(Cl)cc4[nH]3)cc2)c(C)c1CC(=O)O` [Compound 1, (1-[4-(6-Chloro-1H-indol-2-yl)-benzyl]-3,5-dimethyl-1H-pyrazol-4-yl)-acetic Acid] registered a Ki of 0.8 nM.
Compound `Cc1nn(Cc2ccc(-c3nc4c(C)cncc4[nH]3)cc2)c(C)c1CC(=O)O` [Compound 29] came in with a Ki of 646 nM. Against the preceding compound, the Ki is about 810-fold higher.
As to `Cc1nn(Cc2cccc(-c3cc4ccc(C(F)(F)F)cc4[nH]3)c2)c(C)c1CC(=O)O` [Compound 9], the affinity corresponds to a Ki of 97.8 nM.
As for `CCc1nn(Cc2ccc(-c3nc4cc(F)c(Cl)cc4[nH]3)cc2)c(CC)c1CC(=O)O` [Compound 27], the figure is 0.4 nM; as for `CCc1nn(Cc2ccc(-c3nc4c(F)c(F)ccc4[nH]3)cc2)c(CC)c1CC(=O)O` [Compound 43], 1.1 nM.
To `Cc1nn(Cc2ccc(-c3nc4c(Cl)cc(Cl)cc4[nH]3)cc2F)c(C)c1CC(=O)O` [Compound 73] belongs 2.5 nM.
Turning to `CCc1nn(Cc2ccc(-c3nc4cc(C)ccc4[nH]3)cc2)c(CC)c1CC(=O)O` [Compound 58], the Ki worked out at 1.3 nM.
`CCc1nn(Cc2ccc(-c3nc4cc(Cl)ccc4n3C)cc2)c(CC)c1CC(=O)O` [Compound 69] had a Ki of 61.2 nM.
In turn, `CCc1nn(Cc2ccc(-c3nc4cc(F)ccc4[nH]3)cc2)c(CC)c1CC(=O)O` [Compound 56] returned a Ki of 1.3 nM.
`Cc1cc(Cn2nc(C)c(CC(=O)O)c2C)ccc1-c1nc2ccccc2[nH]1` [Compound 22] came in with a Ki of 21.9 nM. Against the preceding compound, the Ki is about 17-fold higher.
In the case of `CCc1nn(Cc2ccc(-c3nc4cc(OC)ccc4[nH]3)cc2)c(CC)c1CC(=O)O` [Compound 39], the Ki was 1.3 nM.
Turning to `Cc1nn(Cc2ccc(-c3nc4cc(C(C)(C)C)ccc4[nH]3)cc2F)c(C)c1CC(=O)O` [Compound 97], the Ki came to 0.9 nM.
As for `Cc1nn(Cc2ccc(-c3nc4cc(C(C)(C)C)ccc4[nH]3)cc2)c(C)c1CC(=O)O` [Compound 33], the figure is 0.5 nM.
To `CCc1nn(Cc2ccc(-c3nc4ccncc4[nH]3)cc2)c(CC)c1CC(=O)O` [Compound 61] belongs 56.4 nM; to `CCc1nn(Cc2ccc(-c3nc4ccccc4n3C)cc2)c(CC)c1CC(=O)O` [Compound 46], 340 nM.
As for `Cc1nn(Cc2ccc(-c3nc4cc(F)c(Cl)cc4[nH]3)cc2)c(C)c1CC(=O)O` [Compound 53], the figure is 2.3 nM; as for `COc1ccc2[nH]c(-c3ccc(Cn4nc(C)c(CC(=O)O)c4C)cc3)nc2c1` [Compound 59], 7.6 nM.
Consider `CCc1nn(Cc2ccc(-c3nc4c(F)cc(F)cc4[nH]3)cc2)c(CC)c1CC(=O)O` [Compound 50], for which the inhibitory constant (Ki) is 1.1 nM.
On to `COc1ccc2[nH]c(-c3ccc(Cn4nc(C)c(CC(=O)O)c4C)c(F)c3)nc2c1` [Compound 96], for which the Ki was 5.7 nM. This Ki lies about 5.2-fold higher than the previous one.
To `Cc1nn(Cc2ccc(-c3nc4cc(F)ccc4[nH]3)cc2)c(C)c1CC(=O)O` [Compound 71] belongs 8.5 nM; to `Cc1nn(Cc2ccc(-c3nc4cc(Cl)c(Cl)cc4[nH]3)cc2)c(C)c1CC(=O)O` [Compound 17], 1.2 nM; to `CCc1nn(Cc2ccc(-c3nc4cc(C#N)ccc4[nH]3)cc2F)c(CC)c1CC(=O)O` [Compound 81], 2.6 nM.
As for `CCc1nn(Cc2ccc(-c3nc4c(Cl)cc(Cl)cc4[nH]3)cc2)c(CC)c1CC(=O)O` [Compound 65], the figure is 0.4 nM.
To `Cc1nn(Cc2ccc(-c3nc4cncc(C)c4[nH]3)cc2F)c(C)c1CC(=O)O` [Compound 85] belongs 683 nM; to `CCc1nn(Cc2ccc(-c3nc4cc(Cl)cnc4[nH]3)cc2)c(CC)c1CC(=O)O` [Compound 42], 1.7 nM; to `Cc1ccc2[nH]c(-c3ccc(Cn4nc(C)c(CC(=O)O)c4C)c(F)c3)nc2c1` [Compound 91], 3.7 nM.
Regarding `CCc1nn(Cc2ccc(-c3nc4ccc(C(F)(F)F)cc4[nH]3)cc2)c(CC)c1CC(=O)O` [Compound 20], the Ki is 0.2 nM.
Consider `COc1ccc2[nH]c(-c3ccc(Cn4nc(C)c(CC(=O)O)c4C)c(F)c3)nc2n1` [Compound 92], for which the Ki was found to be 0.7 nM.
In turn, `Cc1nn(Cc2ccc(-c3nc4ccccc4[nH]3)cc2)c(C)c1CC(=O)O` [Compound 14] yielded a Ki of 13.4 nM.
As for `Cc1nn(Cc2ccc(-c3nc4cc(Cl)ccc4[nH]3)cc2)c(C)c1CC(=O)O` [Compound 24], the figure is 1.9 nM; as for `CCc1nn(Cc2ccc(-c3nc4cc(Br)cnc4[nH]3)cc2)c(CC)c1CC(=O)O` [Compound 57], 1.5 nM; as for `CCc1nn(Cc2ccc(-c3nc4c(C)cccc4[nH]3)cc2F)c(CC)c1CC(=O)O` [Compound 83], 1.3 nM.
As for `CCc1nn(Cc2ccc(-c3nc4cncc(C)c4[nH]3)cc2)c(CC)c1CC(=O)O` [Compound 26], the figure is 22.6 nM.
Turning to `Cc1nn(Cc2ccc(-c3nc4cncnc4[nH]3)cc2)c(C)c1CC(=O)O` [Compound 70], the Ki came out at 432 nM. This Ki is about 19-fold higher than that of the compound before.
`CCc1nn(Cc2ccc(-c3nc4cncc(C)c4[nH]3)cc2F)c(CC)c1CC(=O)O` [Compound 103] gave a Ki of 87.6 nM.
As for “(3,5-Diethyl-1-[2-fluoro-4-(3H-imidazo[4,5-b]pyridin-2-yl)benzyl]-1H-pyrazol-4-yl)acetic Acid [Compound 13]”, the figure is 16.2 nM; as for `Cc1nn(Cc2ccc(-c3nc4ccncc4[nH]3)cc2F)c(C)c1CC(=O)O` [Compound 72], 636 nM.
As to `Cc1nn(Cc2ccccc2-c2cc3ccc(Cl)cc3[nH]2)c(C)c1CC(=O)O` [Compound 8], the affinity, expressed as Ki, was 394 nM. This Ki lies about 1.6-fold lower than the previous one.
With `CCc1nn(Cc2ccc(-c3nc4cc(Cl)cnc4[nH]3)cc2F)c(CC)c1CC(=O)O` [Compound 95], the Ki came out at 5.1 nM.
As for `Cc1nn(Cc2cccc(-c3nc4cc(C(F)(F)F)ccc4[nH]3)c2)c(C)c1CC(=O)O` [Compound 110], the figure is 287 nM; as for `Cc1cc2nc(-c3ccc(Cn4nc(C)c(CC(=O)O)c4C)c(F)c3)[nH]c2cc1Cl` [Compound 109], 1.8 nM.
As for `Cc1nn(Cc2ccc(-c3nc4cc(C(F)(F)F)ccc4[nH]3)cc2F)c(C)c1CC(=O)O` [Compound 111], the figure is 2.5 nM; as for `CCc1nn(Cc2ccc(-c3nc4cc(C(C)(C)C)ccc4[nH]3)cc2)c(CC)c1CC(=O)O` [Compound 68], 0.2 nM.
Regarding `CCc1nn(Cc2ccc(-c3nc4cc(C)c(Cl)cc4[nH]3)cc2)c(CC)c1CC(=O)O` [Compound 55], affinity was put at a Ki of 0.5 nM.
To `CCc1nn(Cc2ccc(-c3nc4cc(F)c(Cl)cc4[nH]3)cc2F)c(CC)c1CC(=O)O` [Compound 76] belongs 0.6 nM.
As for `Cc1nn(Cc2ccc(-c3nc4c(F)cccc4[nH]3)cc2F)c(C)c1CC(=O)O` [Compound 99], the figure is 9.7 nM; as for `Cc1nn(Cc2ccc(-c3nc4ccccc4n3C)cc2)c(C)c1CC(=O)O` [Compound 30], 753 nM; as for `CCc1nn(Cc2ccc(-c3nc4nc(OC)ccc4[nH]3)cc2)c(CC)c1CC(=O)O` [Compound 64], 3.1 nM.
As for `CCc1nn(Cc2ccc(-c3nc4nc(OC)ccc4[nH]3)cc2F)c(CC)c1CC(=O)O` [Compound 79], the figure is 1.3 nM; as for `CCc1nn(Cc2ccc(-c3nc4c(F)cccc4[nH]3)cc2)c(CC)c1CC(=O)O` [Compound 67], 1.7 nM.
In the case of `CCc1nn(Cc2ccc(-c3nc4cncnc4[nH]3)cc2)c(CC)c1CC(=O)O` [Compound 37], affinity was put at a Ki of 85.4 nM.
